Consider three compounds from US20250099487A1, “COMPOSITION FOR PREVENTING OR TREATING PULMONARY FIBROSIS, COMPRISING TAURODEOXYCHOLIC ACID OR PHARMACEUTICALLY ACCEPTABLE SALT THEREOF AS ACTIVE INGREDIENT” (SHAPERON INC., priority 2022, published 2025).

Series [1] in a line: Body weight changes in bleomycin-induced idiopathic pulmonary fibrosis animal model. Format: in vivo, C57BL/6 mice. The note with it: HY209 administration group vs control group; oral BID Day 7-Day 21; measured daily. The method, then: (§1) Specifically, 9-week-old C57BL/6 mice were purchased and allowed to adapt to their environment for one week before the experiment was conducted. The experimental animals were maintained under conditions of 22±2° C., 55±10% relative humidity, and a 12-hour light/dark cycle. Water was provided ad libitum, and sterilized feed was used, allowing free access to food.
(§2) The pulmonary fibrosis group was orally administered a vehicle (0.5% CMC (carboxymethylcellulose) solution) at a dose of 10 mL/kg twice daily, while the experimental group was orally administered HY209 formulated in a 0.5% CMC solution to achieve final concentrations of 10, 30, and 60 mg/kg, also twice daily. The comparison group (Nintedanib administration group) was orally administered Nintedanib, formulated in a vehicle (0.1% Natrosol; Hydroxyethylcellulose solution) to achieve a final concentration of 60 mg/kg, twice daily. The pulmonary fibrosis group (Natrosol administration group) for comparison with the Nintedanib administration group received 10 mL/kg of 0.1% Natrosol solution orally twice daily. The control group was administered saline instead of bleomycin and received a vehicle (0.5% CMC (carboxymethylcellulose) solution) at a dose of 10 mL/kg orally twice daily.
Specifically, the body weight of the mice in each group was measured daily throughout the course of the experiment.

Series [2] concerns bleomycin-induced idiopathic pulmonary fibrosis animal model. The series is described as follows: Lung weight changes in bleomycin-induced idiopathic pulmonary fibrosis animal model. In kind it is in vivo, C57BL/6 mice. How it is done:
Specifically, 9-week-old C57BL/6 mice were purchased and allowed to adapt to their environment for one week before the experiment was conducted. […] Water was provided ad libitum, and sterilized feed was used, allowing free access to food. […] The control group was administered saline instead of bleomycin and received a vehicle (0.5% CMC (carboxymethylcellulose) solution) at a dose of 10 mL/kg orally twice daily. Specifically, the mice in each group were sacrificed upon completion of the experiment, and their lungs were excised. The weights of the excised lungs were then measured.

Series [3] shares this test system. The series is described as follows: Histopathological evaluation of pulmonary fibrosis (Crossman's Trichrome, Matsuse modification of the Ashcroft score). Format: in vivo, C57BL/6 mice. The method, then: Specifically, 9-week-old C57BL/6 mice were purchased and allowed to adapt to their environment for one week before the experiment was conducted. […] Water was provided ad libitum, and sterilized feed was used, allowing free access to food. […] The control group was administered saline instead of bleomycin and received a vehicle (0.5% CMC (carboxymethylcellulose) solution) at a dose of 10 mL/kg orally twice daily. Specifically, the mice in each group were sacrificed upon completion of the experiment, and their lungs were excised. The excised lungs were embedded in paraffin for histopathological evaluation and stained according to the Crossman's Trichrome method (Gray P. The Microtomist's Formulary and Guide. Published by Robert E. Krieger Publishing Co.). The histological changes in the lungs were assessed using the Matsuse modification of the Ashcroft score, as presented in Table 2 (Ashcroft H et al. J Clin Pathol (1988) 41:467-70; Matsuse T et al. Eur Respir J (1999) 13:71-77). [table]

The next series relates to α-SMA. The series is described as follows: Immunohistochemical analysis of α-SMA area in lung tissue. Format: in vivo, C57BL/6 mice. The method, then: as §1, §2
Specifically, the mice in each group were sacrificed upon completion of the experiment, and their lungs were excised. The excised lungs were embedded in paraffin for histopathological evaluation, and sections were obtained and mounted onto slides. Subsequently, the expression distribution of the fibrosis-related factor α-SMA in the lung tissue was evaluated.
Immunohistochemical analysis of α-SMA was performed using polyclonal anti-α-SMA antibodies. Antigen retrieval was conducted using Target Retrieval Solution pH 6 (PT Link module, DAKO). […] The de novo accumulation level of α-SMA was evaluated using digital image analysis software (Visiopharm®). The results were expressed as the percentage (%) of the α-SMA area.

Series [4] concerns human lung fibroblast cell line MRC5. Put plainly: qPCR of fibrosis-related factors in TGF-β-treated MRC5 cells. In kind it is cell-based. The following applies: MRC5, TGF-β1 5 ng/mL, 48 hours. The method, then: Specifically, the human lung fibroblast cell line MRC5 was seeded at a density of 2×10^5 cells per well in a 6-well plate and incubated overnight to allow cell attachment. Subsequently, the medium was removed, and the cells were treated with TGF-β1 at a concentration of 5 ng/mL along with HY209 or TUDCA at concentrations of 0, 0.1, 1, and 10 μM, and cultured for 48 hours before collecting the cells. Following this, RNA was extracted from the cells using the RNeasy Mini Kit (QIAGEN), and cDNA was synthesized using Maxime™ RT PreMix (LiliF Diagnostic). qPCR measurements were conducted using Power SYBR™ Green PCR Master Mix (Thermo Scientific) in accordance with the manufacturer's instructions. Additionally, primers specific for Col1α1, α-SMA, and PAI-1 were utilized to assess their expression, and GAPDH was measured as the internal standard.
A general note: Quantitative PCR measures a nucleic acid by following its amplification.

The test system of another series is IL-1β. The series is described as follows: Inhibition of IL-1β production in PMA-differentiated U937 macrophages induced with BzATP (ELISA). Format: cell-based, human. The note with it: for IC50: Homo sapiens, U-937, U937 macrophages, 12 h pretreatment, BzATP 300 μM 12 h. The method, then: (§3) To evaluate the anti-inflammatory efficacy of HY209 and TUDCA, the human monocytic cell line U937 was treated with PMA (phorbol 12-myristate 13-acetate) to induce differentiation into macrophages.
Specifically, the human monocytic cell line U937 was seeded at a density of 70,000 cells per well in a 96-well plate and cultured for 24 hours in RPMI1640 medium containing 50 nM PMA (phorbol 12-myristate 13-acetate) to induce differentiation into macrophages. The medium was then removed from each well, and HY209 or TUDCA was administered at varying concentrations (HY209: 1, 0.5, 0.25, 0.125, 0.0625, 0.0312, 0.0156, 0.0078 μM; TUDCA: 1000, 316, 100, 31.6, 10, 3.16, 0.316, 0.1, 0.0316, 0.01, 0.00316 μM) for 12 hours. Subsequently, BzATP (2′(3′)-O-(4-Benzoylbenzoyl)adenosine 5′-triphosphate) was added to each well to achieve a final concentration of 300 μM, and the cells were incubated for an additional 12 hours. The supernatants were then collected, and IL-1β levels were measured using an IL-1β ELISA kit (R&D Systems) according to the manufacturer's instructions (FIG. 7a).
A general note: An ELISA detects its analyte on a solid surface through an enzyme-linked reagent.

Another series has as its system TNF-α. Put plainly: Inhibition of TNF-α production in PMA-differentiated U937 macrophages induced with Pam2CSK4 (ELISA). In kind it is cell-based, human. The note with it: for IC50: Homo sapiens, U-937, U937 macrophages, Pam2CSK4 50 ng/mL, 4 hours. The method, then: as §3
Additionally, the human monocytic cell line U937 was cultured at a density of 5×10^6 cells in a 100 mm dish containing RPMI1640 medium supplemented with 4 nM PMA (phorbol 12-myristate 13-acetate) for 5 hours to induce differentiation into macrophages. The differentiated macrophages were then seeded into a 96-well plate at a density of 50,000 cells per well and incubated for 24 hours to allow for rest. Following this, the medium was replaced with serum-free medium, and the cells were cultured for an additional 12 hours. The medium was then removed from each well, and the cells were treated with 50 ng/mL of Pam2CSK4 (Pam2CysSerLys4) along with HY209 or TUDCA at varying concentrations (HY209: 10, 4, 2, 1, 0.5, 0.25, 0.125, 0.0625, 0.03125 μM; TUDCA: 100, 50, 25, 12.5, 6.25, 3.125, 1.562, 0.76 μM) for 4 hours. The supernatants were then collected, and TNF-α levels were measured using a TNF-α ELISA kit (R&D Systems) according to the manufacturer's instructions (FIG. 7b).

[5] abbreviates: 10 mg/kg oral BID Day 7-21, compared to the pulmonary fibrosis group.
[6] abbreviates: 60 mg/kg oral BID Day 7-21, compared to the pulmonary fibrosis group.
Where [7] appears, read: 60 mg/kg oral BID Day 7-21, compared to the Natrosol administration group.

Structures are written as SMILES.

On to `C[C@H](CCC(=O)NCCS(=O)(=O)O)[C@H]1CC[C@H]2[C@@H]3CC[C@@H]4C[C@H](O)CC[C@]4(C)[C@H]3C[C@H](O)[C@]12C` [HY209, sodium taurodeoxycholate], for which the body weight changes entry in series [1] is listed as “no significant differences”. Further, the lung weight entry in series [2] (setting [5]) and in series [2] (setting [6]) was “statistically significantly decreased” throughout. Moreover, the “pulmonary fibrosis (Ashcroft score)” value in series [3] (setting [5]) and in series [3] (setting [6]) was “statistically significantly decreased” throughout. Besides, the α-SMA area entry in the series with α-SMA (10 mg/kg oral BID Day 7-21, compared to the pulmonary fibrosis group and the Natrosol administration group) is listed as “significantly decreased”; in the series on α-SMA (HY209 60 mg/kg oral BID Day 7-21, compared to the pulmonary fibrosis group and the Natrosol administration group), “significantly decreased”. Further, the Col1α1 expression result in series [4] (0.1 μM), in series [4] (1 μM) and in series [4] (10 μM) was “reduced the expression” in each case. The PAI-1 expression result in series [4] (0.1 μM), in series [4] (1 μM) and in series [4] (10 μM) was “inhibition” throughout. For the same compound, the α-SMA expression result in series [4] (0.1 μM), in series [4] (1 μM) and in series [4] (10 μM) was “inhibition” in each case. Also, the “IC50 for IL-1β, times lower than that of TUDCA” value in the series on IL-1β (HY209 vs TUDCA) worked out at 34 times. Also, the IC50 in the series with IL-1β was 44 nM; in the series with TNF-α, 360 nM. In the series on TNF-α (HY209 vs TUDCA), the “IC50 for TNF-α, times lower than that of TUDCA” value came to 36 times.

In the case of `C[C@H](CCC(=O)NCCS(=O)(=O)O)[C@H]1CC[C@H]2[C@@H]3[C@@H](O)C[C@@H]4C[C@H](O)CC[C@]4(C)[C@H]3CC[C@]12C` [TUDCA, tauroursodeoxycholic acid, reference compound], the Col1α1 expression entry in series [4] (0.1 μM) and in series [4] (1 μM) was “increase in expression” each time. The figures for the PAI-1 expression result in series [4] (0.1 μM), in series [4] (1 μM) and in series [4] (10 μM) were “did not demonstrate inhibitory effects”, “did not demonstrate inhibitory effects” and “inhibitory effects”, respectively. The α-SMA expression entry in series [4] (0.1 μM) is on record as “did not demonstrate inhibitory effects”; in series [4] (1 μM) it was “did not demonstrate inhibitory effects”; in series [4] (10 μM) it was “inhibitory effects”. Besides, the IC50 in the series on IL-1β worked out at 1500 nM; in the series on TNF-α, 13100 nM.

Take `COC(=O)c1ccc2c(c1)NC(=O)/C2=C(\Nc1ccc(N(C)C(=O)CN2CCN(C)CC2)cc1)c1ccccc1` [Nintedanib, reference compound]: in series [2] (setting [7]), the lung weight entry is reported as “significant decrease”. Further, in series [3] (setting [7]), the “pulmonary fibrosis (Ashcroft score)” value was “significant reduction”. Further, in the series with α-SMA (Nintedanib 60 mg/kg oral BID Day 7-21, compared to both the pulmonary fibrosis group and the Natrosol administration group), the α-SMA area entry is “significant reduction”.

Usually IC50 stands for the point on the concentration scale where inhibition reaches its midpoint.
